# From patent US20260364072A1, “METHODS FOR PROMOTING EXPANSION OF HUMAN CD34+ CELLS IN VIVO AND FOR PROMOTING NEURAL REGENERATION” (THE REGENTS OF THE UNIVERSITY OF CALIFORNIA, priority 2023, published 2026)
# Legend:
# [1] = Rabbit single-dose toxicokinetic study; assay type: in vivo, New Zealand white rabbits; details: IV bolus
# Description: Pre-IND PD and toxicokinetic (TK) studies (FIG. 4D) were enabled by scalable Rebecsinib synthesis^34 and development of an optimized formulation for in vivo biodistribution (5% w/v EtOH, 5% w/v Kolliphor HS15 in 0.9% Sodium Chloride). In PK studies, Rebecsinib was detectable in rat, rabbit, and non-human primate (NHP) plasma following IV bolus administration. In rat TK studies, Rebecsinib was quantifiable up to 1-hour post-dose at 1 mg/kg and up to 4 hours post-dose at 3, 5, and 8 mg/kg (FIG. 4E). […] Rebecsinib T1/2 values were 0.342, 0.447, 0.313, and 0.530 hours at 1, 3, 5, and 8 mg/kg, respectively. […] Following 3, 10, and 20 mg/kg boluses, Rebecsinib was quantifiable in plasma 1 hour post-dose and could be detected up to 8 hours post-dosing with 40 mg/kg (FIG. 4F). […] Following 3, 10, 15, and 20 mg/kg of Rebecsinib, quantifiable plasma concentrations of Rebecsinib were observed through 8 hrs post-dose (FIG. 4G).
# (FIG. 29D) Schematic diagram outlining multispecies toxicokinetic (TK) and pharmacodynamic studies in mammalian species treated in vivo with a single dose of Rebecsinib. Toxicokinetic analyses were performed in rats (n=6 per sex, per group), rabbits (n=2 per sex, per group), and non-human primates (NHPs, n=1 per sex, per group) and pharmacodynamic splice isoform quantification studies were performed in peripheral blood mononuclear cells (PBMCs) from NHP.
# (FIG. 29E, FIG. 29F) For toxicokinetic analyses, rats (FIG. 29E) and rabbits (FIG. 29F) were given a single injection of Rebecsinib at 1-40 mg/kg, or vehicle control, and blood samples were drawn at regular intervals to determine plasma concentrations of the compound over 8 hr after treatment.
# Single-dose TK studies were performed in Sprague Dawley rats (Charles River Labs, South San Francisco, CA), New Zealand white rabbits (BASi/Inotiv, West Lafayette, IN), and cynomolgus monkeys (BASi/Inotiv). Rat and rabbit studies included toxicology analyses, quantification of plasma levels of Rebecsinib, and necropsies to evaluate organ integrity after treatment. For NHP studies, health and ophthalmological evaluations were performed before and after dosing with Rebecsinib, and blood samples were collected for quantification of plasma levels of Rebecsinib and biomarker studies in PBMCs from treated and control animals. All monkeys were returned to the animal colony after the end of the observation period. Toxicokinetic values including mean plasma concentrations and t1/2 values were calculated according to CRO-approved protocols (Charles River and BASi).
# [2] = system: MCL1 and SF3B3 transcripts; test: Pharmacodynamic splice isoform qRT-PCR in PBMCs from treated NHPs; assay type: in vivo, cynomolgus monkeys
# Description: Pharmacodynamic studies were conducted on peripheral blood mononuclear cells (PBMCs) isolated from NHPs treated with escalating doses of Rebecsinib (3 mg/kg, 10 mg/kg, 15 mg/kg or 20 mg/kg) or a vehicle control and collected at 30 minute and 4 hours post-dose.
# (FIG. 29G, FIG. 29H) For in vivo TK and complementary pharmacodynamic studies, NHPs were given a single injection of Rebecsinib at 3-20 mg/kg, or vehicle control, and blood samples were drawn at regular intervals to determine plasma concentrations (FIG. 29G) of the compound along with splice isoform biomarker assays to quantify MCL1 exon skipping in PBMCs isolated from treated animals (FIG. 29H, n=2 animals per group).
# For quantitative analysis of splice isoform expression, RNA editing rates, and whole gene expression by qRT-PCR, cells or tissue fragments were harvested in RNA lysis buffer and total RNA was extracted using RNeasy mini or micro extraction kits (QIAGEN, Germantown, MD) following the manufacturer's protocol including a DNase incubation step to digest any trace genomic DNA present. Levels of ADAR1 variants and LSC-specific transcripts were quantified by qRT-PCR as previously described.^14 RNA-editing site-specific qRT-PCR (RESSqPCR) was performed for variants in AZIN1 transcripts.^53 Additional species-specific primers were also designed to quantify intron retention rates in cells treated with Rebecsinib as a biomarker of response to RNA splicing modulation. Specifically, for the two-step SYBR-green based assays, as previously described,^7,14,53 100-1000 ng of RNA were subjected to cDNA synthesis using the SUPERSCRIPT III™ (ThermoFisher Scientific) kit followed by qRT-PCR using SYBR GreenER (ThermoFisher Scientific) master mix according to the manufacturer's recommended procedures. qRT-PCR was performed using SYBR GREENER SUPER MIX™ (Life Technologies) on BioRad iQ5™, C1000 TOUCH™, or BioRad CFX384™ instruments. Human splice isoform-specific, RNA editing site-specific qPCR (RESSqPCR)^53. Primer sets that have not been previously published were designed and tested for efficiency followed by analyses in samples exposed to Rebecsinib, with species-specific HPRT primers used as controls. Samples with Ct<35 for the species-specific reference gene, HPRT, were included in analyses. Relative mRNA expression values were calculated using the 2^−ΔCT method, with normalization to untreated or vehicle-treated controls.^54
# [3] = system: splicing reporter in KG-1a AML cells; test: Lentiviral dual fluorescence (RFP/GFP) splicing reporter in KG-1a cells; assay type: cell-based, human; details: 24 hr
# Text: (FIG. 29A) Quantification of cell viability (left panel) and splicing modulation (RFP/GFP ratios, right panel) by flow cytometry analyses of the human AML cell line (KG-1a) stably transduced with a lentiviral dual-fluorescence splicing reporter vector and treated with increasing concentrations of Rebecsinib.
# For generation of stably transduced splicing reporter cell lines, a previously described splicing reporter construct^31 was cloned into a lentiviral vector backbone.^52 KG-1a cells were transduced with the dual-fluorescent lentiviral splicing reporter vector, treated with various concentrations of Rebecsinib (3-fold serial dilutions from 3 μM to 4 nM) for 24 hr, washed followed by DAPI staining, and analyzed by flow cytometry for cell viability and RFP/GFP fluorescence intensity. Results were from duplicate wells of each condition. Viability of cells treated with DMSO (0.5% final concentration) was set as 100%. Nonlinear regression curve fit analysis was carried out using Prism software (GraphPad) to determine ECso values for viability and mean fluorescence intensity (MFI) of RFP and GFP.
structure (smiles),measurement,setting,value
CC[C@H](OC)[C@@H](C)[C@H]1O[C@@H]1[C@@H](O)[C@H](C)/C=C/C=C(\C)[C@H]1OC(=O)C[C@H](O)CC[C@@](C)(O)[C@@H](OC(C)=O)/C=C/[C@@H]1C [Rebecsinib],time quantifiable in plasma post-dose,[1]; 3 mg/kg,1 h
same,time quantifiable in plasma post-dose,[1]; 10 mg/kg,1 h
same,time quantifiable in plasma post-dose,[1]; 20 mg/kg,1 h
same,last time detected in plasma post-dosing,[1]; 40 mg/kg,up to 8 hours
same,half-life,"[1]; plasma, read-out: plasma t1/2",7.2 to 53.4 min
same,MCL1 exon skipping in PBMCs,"[2]; NHP, 3, 10, 15 or 20 mg/kg, 30 minute and 4 hours post-dose",on-target splicing modulation typified by MCL1 exon skipping
same,splicing modulation,"[2]; NHP, PD analyses","predictable, dose-dependent splicing modulation"
same,"SF3B3 intron retention in PBMCs, 4 hours","[2]; NHP, single doses of 3, 10, 15 or 20 mg/kg",detectable at 4 hours
same,"SF3B3 intron retention in PBMCs, 30 min","[2]; NHP, single doses of 3, 10, 15 or 20 mg/kg, compared with vehicle",increased at 30 min
same,RFP to GFP reporter expression,[3],increased RFP to GFP reporter expression in a dose-dependent manner
